How the values were obtained:
[1] = tested on: tyrosine kinases reported to be the target of each inhibitor; details: read-out: reported IC50 concentration (1× concentration); for the kinase reported to be the target of the inhibitor; cited from earlier work
Kdr = target: T1, Kdr (Mus musculus, UniProt P35918); assay: Kinase inhibitor profiling, pEY phosphorylation; format: biochemical
T1 construct: specificity data for proteins generated from a library of eighteen full-length clones; biotin on random lysines (biotin-Lys-tRNA); host or cells: rabbit reticulocyte lysate, coupled transcription/translation (TnT, Promega)
Experimental: Proteins were produced in an in vitro transcription and translation reaction. […] The unbound components of the reaction containing endogenous kinases were removed by three washes with TT-buffer (25 mM Tris-HCl buffer pH 7.4 and 0.004% Triton), two five minutes washings with high-salt wash buffer (25 mM Tris-HCl buffer pH 7.4, 0.004% Triton, 1M NaCl and 5 mM DTT) and 3 more washes with TT-buffer. To these immobilized and purified proteins a tyrosine kinase substrate, 5 nM pEY (poly Glu-Tyr, Sigma, MO), was added in a 50 μl reaction solution containing 5 mM MgCl2, 5 mM MnCl2, 100 μM ATP, 25 mM Tris-HCl buffer pH 7.4, 0.05 mM Na3VO4, 0.004% TritonX-100, 2 mM DTT and EDTA-free protease inhibitor (Roche Molecular Biochemicals). This mixture was incubated with shaking at room temperature overnight to allow phosphorylation of the pEY substrate by the immobilized kinases. Following this incubation, 45 μl of this mixture was transferred to a streptavidin or avidin-coated NPT IPR plate coated with biotinylated anti-phosphotyrosine antibody (PY20, Zymed labs, CA) followed by incubation for 30 minutes at room temperature to allow the binding of the phosphorylated pEY substrate to the PY20 coated NPT plate. Following this binding step, 50 ng Sulfo-TAG labeled anti-phosphotyrosine in buffer containing 25 mM Tris-HCl buffer pH 7.4, 5 mM MgCl2, 0.05 mM Na3VO4, 0.004% TritonX-100, 2 mM DTT and 0.05% IgG was added followed by incubation at room temperature for 30 mm. The unbound reagents were removed by one time washing with water, and the TAG label was detected in presence of 150 μl IPR assay buffer (0.4 mM Gly-Gly buffer, pH 7.8, 1 mM EDTA, 0.1 M TPA). The ECL signals were measured using an imaging plate reader.
The unbound components of the translation reaction (including any endogenous kinases) were removed by 3 washes with TT-buffer (25 mM Tris-HCl buffer pH 7.4 and 0.004% Triton), two five minutes washes with high-salt wash buffer (25 mM Tris-HCl buffer pH 7.4, 0.004% Triton, 1M NaCl and 5 mM DTT) and 3 washes with TT-buffer. […] The mixture was incubated at room temperature for 10 mm before starting the kinase reaction by adding 25 μl of 200 μM ATP in buffer A. This mixture was incubated with intermittent shaking at room temperature for 2 hours to overnight to allow (a) phosphorylation of the pEY substrate and (b) autophosphorylation of the immobilized kinases. Autophosphorylation and phosphorylation of the pEY was measured as described in Examples 7 and 8.
The ECL signal in control wells produced by tyrosine kinases was compared to the wells containing inhibitor compounds.

Epha7 = target: T2, Epha7 (Mus musculus, UniProt Q61772); assay: Kinase inhibitor profiling, pEY phosphorylation; format: biochemical
T2 construct: autophosphorylation activity from full-length clones Spleen Tyrosine Kinase (SYK) and Eph receptor-A7 (EphA7); host or cells: rabbit reticulocyte lysate, TnT coupled in vitro transcription/translation (cell-free)
T2 sequence (Q61772 28-998): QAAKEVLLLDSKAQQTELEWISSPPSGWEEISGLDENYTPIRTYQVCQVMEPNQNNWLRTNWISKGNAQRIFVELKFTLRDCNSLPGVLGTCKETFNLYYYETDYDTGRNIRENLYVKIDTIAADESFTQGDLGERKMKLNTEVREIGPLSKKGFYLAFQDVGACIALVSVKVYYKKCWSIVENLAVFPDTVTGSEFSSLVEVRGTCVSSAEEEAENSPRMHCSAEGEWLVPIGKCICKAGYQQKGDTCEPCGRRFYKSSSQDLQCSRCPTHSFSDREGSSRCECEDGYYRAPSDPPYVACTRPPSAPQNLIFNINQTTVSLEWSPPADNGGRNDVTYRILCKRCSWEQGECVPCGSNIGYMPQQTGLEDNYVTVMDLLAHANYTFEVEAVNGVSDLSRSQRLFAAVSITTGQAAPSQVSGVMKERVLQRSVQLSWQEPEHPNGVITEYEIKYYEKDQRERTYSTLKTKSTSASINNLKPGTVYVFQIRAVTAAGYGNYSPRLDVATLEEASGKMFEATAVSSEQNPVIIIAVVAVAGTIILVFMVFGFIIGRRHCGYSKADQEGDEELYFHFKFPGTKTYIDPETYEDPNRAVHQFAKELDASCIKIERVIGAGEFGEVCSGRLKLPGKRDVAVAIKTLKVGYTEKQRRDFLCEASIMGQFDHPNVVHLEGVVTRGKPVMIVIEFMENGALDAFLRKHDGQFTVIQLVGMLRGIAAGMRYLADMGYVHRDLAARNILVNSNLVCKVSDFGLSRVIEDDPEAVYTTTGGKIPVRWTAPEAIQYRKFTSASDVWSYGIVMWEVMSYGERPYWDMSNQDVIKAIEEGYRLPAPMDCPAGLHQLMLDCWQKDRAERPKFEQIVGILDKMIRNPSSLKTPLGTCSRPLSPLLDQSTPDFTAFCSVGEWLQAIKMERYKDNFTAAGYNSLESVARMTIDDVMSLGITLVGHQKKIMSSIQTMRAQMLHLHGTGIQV

T1 sequence (P35918 20-1345): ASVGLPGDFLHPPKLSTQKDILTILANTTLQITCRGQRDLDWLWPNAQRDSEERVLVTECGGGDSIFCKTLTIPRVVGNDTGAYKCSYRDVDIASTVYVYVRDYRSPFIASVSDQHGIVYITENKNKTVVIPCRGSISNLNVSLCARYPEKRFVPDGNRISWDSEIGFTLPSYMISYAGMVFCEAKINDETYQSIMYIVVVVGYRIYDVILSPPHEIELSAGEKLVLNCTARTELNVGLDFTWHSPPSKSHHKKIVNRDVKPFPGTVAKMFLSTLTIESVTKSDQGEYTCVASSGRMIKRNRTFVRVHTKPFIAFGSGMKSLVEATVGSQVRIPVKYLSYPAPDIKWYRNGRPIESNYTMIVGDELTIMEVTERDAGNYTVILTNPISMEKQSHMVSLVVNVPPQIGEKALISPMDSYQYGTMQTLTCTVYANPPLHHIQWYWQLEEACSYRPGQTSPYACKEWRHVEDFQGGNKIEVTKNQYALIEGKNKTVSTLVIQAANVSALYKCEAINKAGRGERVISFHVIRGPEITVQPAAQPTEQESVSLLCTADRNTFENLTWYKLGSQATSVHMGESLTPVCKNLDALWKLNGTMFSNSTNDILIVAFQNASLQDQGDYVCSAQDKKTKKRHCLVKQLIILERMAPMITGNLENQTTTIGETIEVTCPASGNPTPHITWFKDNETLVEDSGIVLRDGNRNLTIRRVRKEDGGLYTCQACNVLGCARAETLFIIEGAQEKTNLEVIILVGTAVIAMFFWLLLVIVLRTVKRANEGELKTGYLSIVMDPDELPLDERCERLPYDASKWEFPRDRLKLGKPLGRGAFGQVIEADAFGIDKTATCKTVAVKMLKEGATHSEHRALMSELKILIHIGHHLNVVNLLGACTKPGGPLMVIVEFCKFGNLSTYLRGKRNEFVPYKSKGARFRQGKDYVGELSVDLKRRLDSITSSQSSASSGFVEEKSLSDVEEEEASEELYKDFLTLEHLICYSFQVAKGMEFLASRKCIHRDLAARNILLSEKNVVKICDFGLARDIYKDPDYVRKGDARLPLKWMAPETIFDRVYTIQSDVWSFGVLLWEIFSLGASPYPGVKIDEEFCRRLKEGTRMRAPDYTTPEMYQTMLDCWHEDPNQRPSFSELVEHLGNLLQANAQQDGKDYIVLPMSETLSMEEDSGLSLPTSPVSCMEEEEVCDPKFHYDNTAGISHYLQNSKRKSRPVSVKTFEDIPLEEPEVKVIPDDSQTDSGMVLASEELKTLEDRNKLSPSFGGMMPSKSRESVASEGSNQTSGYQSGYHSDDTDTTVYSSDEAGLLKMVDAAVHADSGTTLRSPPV

Row | Compound | IC50 [1] [nM] | Inhibition specificity towards pEY phosphorylation at 10X IC50, Kdr (Kdr) | Inhibition specificity towards pEY phosphorylation at 10X IC50, Epha7 (Epha7)
1 | COC(=O)c1ccc(NCc2cc(O)ccc2O)cc1 [AG-957] | 750 |  | 
2 | CC(C)(C)c1cc(C=C(C#N)C#N)cc(Br)c1O [AG-1024] | 18000 | M (medium inhibition (“M”=between 25 to 50% of the activity remaining)) | 
3 | Cc1cc2ncc(-c3ccc(O)c(O)c3)nc2cc1C [AG-1433] | 5000 | H (high inhibition (“H”=less than 25% of the activity remaining)) | L (low inhibition (“L”=between 50–75% of the activity remaining))
4 | COc1c(C=O)c(O)cc2c1C(=O)c1ccccc1C2=O [Damnacanthal] | 620 | H (high inhibition (“H”=less than 25% of the activity remaining)) | H (high inhibition (“H”=less than 25% of the activity remaining))
5 | Cc1ccc(-c2nn(C(C)(C)C)c3ncnc(N)c23)cc1 [PP1] | 600 | M (medium inhibition (“M”=between 25 to 50% of the activity remaining)) | 
6 | COc1cc2ncnc(Nc3ccc(Cl)cc3F)c2cc1OC [VEGFR inhibitor] | 2000 | H (high inhibition (“H”=less than 25% of the activity remaining)) | 
7 | COc1cc2ncnc(Nc3ccc(O)cc3)c2cc1OC [WHI-P131] | 7800 | H (high inhibition (“H”=less than 25% of the activity remaining)) | L (low inhibition (“L”=between 50–75% of the activity remaining))
8 | Erbstatin analog | 780 |  | 
